How the values were obtained:
human cartilage tissue [1] = test: Protection of human cartilage tissue during liquid nitrogen freezing (HE stain, separation of cartilage from hard bone); details: applied to articular cartilage, liquid nitrogen 20 minutes, warmed to room temperature 20 minutes
Text: Unneeded normal cartilage tissues (residual specimens) taken from the human body during surgery were divided into three groups and treated separately: control group A was not treated; for control group B, traditional commercially available anti-freezing agent was applied to articular cartilage; and for experimental group C, the anti-freezing agent of the present invention was applied to the articular cartilage. The control and experimental groups were separately placed in liquid nitrogen to freeze for 20 minutes, slowly warmed to room temperature for 20 minutes, fixed with 4% paraformaldehyde, pathologically sectioned, and then stained by hematoxylin-eosin. […] The size of separation was 2.16 mm in the control group A, 1.2 mm in the control group B, and 0.45 mm in the experimental group. It was shown that the anti-freezing agent of the present invention can protect cartilage tissue and reduce the separation of cartilage and hard bone caused by freezing.

rat knee cartilage = test: Protective effect on rat knee cartilage during liquid nitrogen freezing (HE stain of pathological sections); details: coated at articular cartilage; liquid nitrogen 20 minutes, warmed to room temperature 20 minutes
Description: The rat knee cartilage was taken out. The control group A was not treated, and the control group B was coated with a conventional commercially available anti-freezing agent (dimethyl sulfoxide) at the articular cartilage. The experimental groups were coated with the anti-freezing agent of the present invention at the articular cartilage, separately placed in liquid nitrogen for 20 minutes, slowly warmed to room temperature for 20 minutes, fixed with 4% paraformaldehyde, pathologically sectioned, and then stained with hematoxylin-eosin (HE stain). The pathological sections of hematoxylin-eosin stained control group (A), control group (B), and experimental group (C). are shown in FIG. 2. After freezing, in the control group A the cartilage surface became brittle and uneven (as indicated by the arrow), and the control group B was also uneven (as indicated by the arrow).

human cartilage tissue [2] = test: Change of cartilage color index (luminance level of cartilage surface) after freezing; details: applied to articular cartilage; liquid nitrogen 20 minutes, warmed to room temperature 20 minutes
Text: Unneeded normal cartilage tissues (residual specimens) taken from the human body during surgery were divided into three groups and treated separately: control group A was not treated; for control group B, traditional commercially available anti-freezing agent was applied to articular cartilage; and for experimental group C, the anti-freezing agent of the present invention was applied to the articular cartilage. The control and experimental groups were separately placed in liquid nitrogen to freeze for 20 minutes, and then slowly warmed to room temperature for 20 minutes. The color index change of the cartilage surface was observed by analyzing the decrease of luminance level of the cartilage surface.

## C[S+](C)[O-] [dimethyl sulfoxide]
Human cartilage tissue [1]; HE stain
  separation at the intersection of the cartilage bottom and the hard bone after freezing: separation (the stellate) also occurred
Human cartilage tissue [1]; untreated control 2.16 mm
  size of separation: 1.2 mm
Rat knee cartilage
  cartilage surface after freezing (hematoxylin-eosin stained section): uneven
Human cartilage tissue [2]
  decrease of luminance level of the cartilage surface after freezing: significantly decreased
